What was measured:
[1] = tested on: Group I self-splicing intron (ribozyme) from the 26S rRNA gene of Pneumocystis carinii, isolate Pc1; assay: In vitro self-splicing of the Group I intron, assayed by splicing of [32P]RNA precursor or by [alpha-32P]GTP incorporation; format: biochemical; conditions: for inhibition of splicing at 500 μM: inhibitor at 500 μM; for inhibition of splicing of the 26S rRNA intron: result in words, 5 mM MgCl2, 100 μM GTP unless otherwise indicated, 37° C., 20 minutes; for replacement of GTP in the splicing reaction: equal concentrations to GTP; for mode of inhibition (kinetic analysis): relative to GTP/guanosine
Procedure: Polymerase chain reaction (PCR) amplification (56) of the intron from the 26S rRNA gene and a portion of the 5' and 3' flanking exons (660 nucleotides of amplified rRNA gene), between nucleotides 1963 and 2267 of 26S rRNA of isolate Pc1 was performed with primers 4208 (5'-[…]-3') (SEQ ID NO:33), whose first 17 nucleotides are a bacteriophage SP6 promoter (57), and 4358 (5'-GACGAGGCATTTGGCTACC-3') (SEQ ID NO:35) in a DNA Thermal Cycler (Perkin-Elmer-Cetus), under conditions recommended by the manufacturer. For some experiments a longer PCR product (1296 nucleotides of amplified rRNA gene) was generated by similar methods, using primers 4208 and 3734 (5'-[…]-3') to amplify the region between nucleotides 1963 and 2903 of 26S rRNA. Transcription of PCR product DNA (1 μg) by SP6 RNA polymerase to produce E1-I-E2 RNA precursor (1296 or 660 nucleotides in length) was carried out using the Riboprobe System II (Promega) under the recommended conditions.
Radioactive RNA precursor (1296 nucleotides, 1 nM) was incubated at 37° C. for 30 minutes in the presence of 50 mM Tris-HCl, pH 7.5, 0.4 mM spermidine, 4 units of RNasin, 100 μM guanosine triphosphate (GTP) and the indicated concentrations of MgCl2 in a volume of 10 μl. Reactions were terminated by addition of 10 μl of 8M urea containing 5 mM Na-EDTA, pH 8.0, and 0.025% each of bromphenol blue and xylene cyanol, followed by heating at 65° C. for 3 minutes and PAGE, with visualization by autoradiography. Lane M contains RNA standards (molecular weights 1.77, 1.52, 1.28, 0.78, 0.53, 0.40, 0.28, and 0.16 kd, BRL), 5'-labeled with ^32 p using bacteriophage T4 polynucleotide kinase (Pharmacia). Lane 1, purified RNA precursor; lane 2, GTP omitted, 5 mM MgCl2; lane 3, no MgCl2, 1 mM EDTA; lanes 4-11, reactions run in the presence of 0, 1, 5, 25, 50, 100, 200 or 500 mM MgCl2, respectively. O indicates origin; P, RNA precursor; I, linear intron; E1-E2, spliced RNA product; C, presumed circularized intron. Bands corresponding to the 5' exon (E1) and G-intron-3' exon (I-E2) are not visible on this exposure.
FIGS. 13A through 13D show the inhibition of intron splicing by antibiotics. All experiments were done with 660 nucleotide RNA precursor. In vitro splicing of [^32 P]RNA precursor was performed in the presence of 5 mM MgCl2 and 100 μM GTP (unless otherwise indicated) at 37° C. for 20 minutes as in FIG. 12. Splicing of unpurified transcripts extracted from SP6 RNA polymerase reactions was performed with 12.5 nM of [α-^32 P]GTP replacing non-radioactive GTP. Bands are identified as in FIG. 12. FIG. 13A: Inhibition by gentamicin and tetracycline. Purified [^32 P]RNA precursor splicing was performed as indicated. Lane 1, control without GTP; lane 2, complete reaction without antibiotics; lanes 3-7, gentamicin present at 50, 100, 200, 250 and 500 μM; lanes 8-12, tetracycline present at 10, 50, 100, 200, and 400 μM. FIG. 13B: Inhibition of intron splicing by gentamicin and tetracycline. Splicing of non-radioactive RNA was assayed in the presence of [^32 P]GTP with no antibiotic (lanes 1 and 7), with 50, 100, 200, 300, and 500 μM gentamicin (lanes 2-6), and with 50, 100, 200, and 400 μM tetracycline (lanes 8-11). FIG. 13C: Splicing inhibition by ethidium bromide. Reactions of [^32 P]RNA precursor were run in the presence of 10 μM GTP (except lane 1 which contained neither GTP nor ethidium bromide); lanes 2-7, reactions run in the presence of ethidium bromide at 0, 0.5, 1, 5, 10, and 25 μM, respectively. […] FIG. 13D: Inhibition of splicing by ethidium bromide, as measured by incorporation of [α-^32 P]GTP. Lanes 1-5, reactions run in the presence of 0, 0.5, 1, 5 and 25 μM ethidium bromide, respectively.
FIGS. 14A and 14B show the inhibition of intron splicing by pentamidine. Reactions were performed as in FIG. 13, with 660 nucleotide RNA precursor. FIG. 14A: Assays of splicing of [^32 P]RNA precursor. […]

[2] = tested on: Group I self-splicing intron from the 16S rRNA gene of P. carinii; assay: In vitro self-splicing of the intron from the 16S rRNA gene; format: biochemical, Pneumocystis carinii; conditions: result in words
Text: Inhibition by aminoglycosides of splicing of other group I introns has previously been described (55,61). […] Some radioactivity remaining at the gel origin and a decrease in precursor entering the gel in the presence of high levels of gentamicin (FIG. 13A) may reflect RNA binding by the antibiotic. […] This mechanism would be consistent with the lack of inhibition of splicing of group II introns by these agents (55,61).
Alternatively, the paired aromatic rings and/or positively charged moieties of pentamidine might act to distort the intron's secondary structure, which is critical to its catalytic function (63). […] If the ability of pentamidine analogues (49) to inhibit splicing correlates with in vivo activity against experimental PCP then this assay would be useful for this purpose.

Saccharomyces cerevisiae = conditions: grown in glycerol versus fermentable sugars; cited from earlier work

## CC1(C)S[C@@H]2[C@H](NC(=O)[C@H](N)c3ccccc3)C(=O)N2[C@H]1C(=O)O [Ampicillin]
[1]
  inhibition of splicing at 500 μM: failed to inhibit

## N=C(N)NCCC[C@@H](N)C(=O)O [D-arginine]
[1]
  inhibition of splicing of the 26S rRNA intron: greater for L-arginine than D-arginine

## CN[C@@H]1[C@@H](O)[C@@H](O[C@@H]2[C@@H](O)[C@H](O[C@H]3O[C@H]([C@@H](C)O)[C@@H](O)[C@H](O)[C@H]3N)[C@@H](N)C[C@H]2N)OC[C@]1(C)O [G418]
[1]
  inhibition of splicing at 500 μM: failed to inhibit splicing

## Nc1nc2c(ncn2[C@@H]2O[C@H](COP(=O)(O)OP(=O)(O)O)[C@@H](O)[C@H]2O)c(=O)[nH]1 [GDP, guanosine diphosphate]
[1]
  replacement of GTP in the splicing reaction: replaceable by equal concentrations

## Nc1nc2c(ncn2[C@@H]2O[C@H](COP(=O)(O)O)[C@@H](O)[C@H]2O)c(=O)[nH]1 [GMP, guanosine monophosphate]
[1]
  replacement of GTP in the splicing reaction: replaceable by equal concentrations

## Nc1nc2c(ncn2[C@@H]2O[C@H](COP(=O)(O)OP(=O)(O)OP(=O)(O)O)[C@@H](O)[C@H]2O)c(=O)[nH]1 [GTP, guanosine triphosphate]
[1]; in vitro splicing, 5 mM MgCl2, 37° C.
  Km: 3 µM

## N=C(N)NCCC[C@H](N)C(=O)O [L-arginine]
[1]; kinetic analysis
  effect on the first step of the splicing reaction: inhibiting the first step
  effect on the second step of the splicing reaction: activate the second step
[1]
  inhibition of splicing of the 26S rRNA intron: greater for L-arginine than D-arginine

## N=C(N)c1ccc(OCCCCCOc2ccc(C(=N)N)cc2)cc1 [Pentamidine]
[1]; kinetic analysis
  effect on the first step of the splicing reaction: acting on the first step
[1]
  mode of inhibition (kinetic analysis): non-competitive
  inhibition of splicing of the 26S rRNA intron: inhibited splicing
[2]
  inhibition of splicing of the 16S rRNA intron: inhibited splicing
Saccharomyces cerevisiae
  sensitivity of growth to pentamidine: more sensitive to pentamidine when grown in glycerol than in various fermentable sugars

## N=C(N)NCCC[C@H](N)C(=O)O [arginine]
[1]
  mode of inhibition (kinetic analysis): competitively
  inhibition of splicing of the 26S rRNA intron: inhibited competitively by high concentrations

## O=C(O)C1=CC(=C(c2ccc(O)c(C(=O)O)c2)c2ccc(O)c(C(=O)O)c2)C=CC1=O [aurintricarboxylic acid]
[1]
  inhibition of splicing at 500 μM: failed to inhibit splicing by either assay

## O=C(N[C@H](CO)[C@H](O)c1ccc([N+](=O)[O-])cc1)C(Cl)Cl [chloramphenicol]
[1]
  inhibition of splicing at 500 μM: failed to inhibit splicing by either assay

## NC(=O)NCCC[C@H](N)C(=O)O [citrulline]
[1]
  inhibition of splicing of the 26S rRNA intron: no detectable inhibition

## CCC[C@@H]1C[C@@H](C(=O)N[C@@H]([C@H]2O[C@H](SC)[C@H](O)[C@@H](O)[C@H]2O)[C@H](C)Cl)N(C)C1 [clindamycin]
[1]
  inhibition of splicing at 500 μM: failed to inhibit splicing by either assay

## C[C@@H]1C[C@@H]([C@H](O)CC2CC(=O)NC(=O)C2)C(=O)[C@@H](C)C1 [cycloheximide]
[1]
  inhibition of splicing at 500 μM: failed to inhibit splicing by either assay

## CC[n+]1c(-c2ccccc2)c2cc(N)ccc2c2ccc(N)cc21 [ethidium bromide]
[1]
  inhibition of splicing of the 26S rRNA intron: completely inhibiting splicing by either assay

## COc1ccc(C[C@H](N)C(=O)N[C@H]2[C@@H](O)[C@H](n3cnc4c(N(C)C)ncnc43)O[C@@H]2CO)cc1 [puromycin]
[1]
  inhibition of splicing at 500 μM: failed to inhibit splicing by either assay

## [H]/N=C(/N)N[C@H]1[C@H](O)[C@@H](O)[C@H](O[C@@H]2O[C@@H](C)[C@](O)(C=O)[C@H]2O[C@@H]2O[C@@H](CO)[C@H](O)[C@@H](O)[C@@H]2NC)[C@@H](N/C(N)=N\[H])[C@@H]1O [streptomycin]
[1]
  mode of inhibition (kinetic analysis): competition with guanosine

## CN(C)C1C(=O)C(C(N)=O)=C(O)C2(O)C(=O)C3=C(O)c4c(O)cccc4C(C)(O)C3CC12 (centres unmarked) [tetracycline]
[1]
  mode of inhibition (kinetic analysis): non-competitive with GTP
  inhibition of splicing of the 26S rRNA intron: inhibits RNA splicing

## gentamicin
[1]; compared with splicing of radioactive RNA precursor, 12.5 nM [α-32P]GTP
  sensitivity of splicing assayed by incorporation of [α-32P]GTP into I and I-E2: less sensitive
[1]
  inhibition of splicing of the 26S rRNA intron: inhibited splicing

## tri-arginine
[1]; inhibition of splicing
  potency relative to L-arginine / arginine: at least 1,000 times

From patent publication US5849484A, “In vitro assay for inhibitors of the intron self-splicing reaction in Pneumocystis carinii” (University of Medicine & Dentistry of NJ, priority 1995, dated 1998)
